Test: recombinant UMI read abundance after kanamycin selection (control-corrected) (log10(CPM+1)); higher = more efficient recombination; extreme values may be limits of the assay; sequences stand for … in AGTGCAGAGAAAATCGGCCAGTTTTCTCTGCCTGCAGTCCGCATGCCGTGGGACCCCTTGGGTTCTAACCTGTTGCCTAGATTTATGCAGCGGACTGCCTTTCTCCCAAAGTGATAAACCGG…AGGTTGGTTTCACT; site = the 11-nt donor
Procedure, shortened: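 Pooled Escherichia coli screen of donor and donor-binding-loop pairs for the IS621 bridge recombinase. Each pair sits with a 12-nt UMI on a plasmid carrying a promoterless kanamycin gene. The library was co-electroporated with a target plasmid encoding a fixed target and T7-inducible recombinase, then plated with IPTG (0.07 mM) plus kanamycin, or unselected, each in two replicates. Recombinant UMIs were PCR-amplified across the donor–target junction and sequenced. Counts became CPM, averaged over replicates, scaled by control-derived factors and reported as log10(CPM+1).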
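Note: IS621 bridge recombinase in Escherichia coli cells against a fixed T5 target plasmid.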

Sequence | recombinant UMI read abundance (log10)
TAAAGTCCATGGACCGGTTTTCCCGGTAATCCGTATTTGTG (site TAAAGTCCTGA) | 0
TAAAGTCCATGGACCGGTTTTCCCGGTAATCCGTATTTGTG (site TAAAGTCCTTA) | 0.19
TAAATTTCATGGACCGGTTTTCCCGGTAATCCGTATTTGCC (site TAAATTTCTGG) | 0
TAACAATCATGGACCGGTTTTCCCGGTAATCCGTATTTGTC (site TAACAATCTGA) | 2.03
TAACCTCCATGGACCGGTTTTCCCGGTAATCCGTATTTGAT (site TAACCTCCTAT) | 0
TAACGCACATGGACCGGTTTTCCCGGTAATCCGTATTTGTA (site TAACGCACTTA) | 1.61
TAACGTTCATGGACCGGTTTTCCCGGTAATCCGTATTTGCA (site TAACGTTCTTG) | 1.75
TAACTGACATGGACCGGTTTTCCCGGTAATCCGTATTTGAT (site TAACTGACTAT) | 1.54
TAACTGCCATGGACCGGTTTTCCCGGTAATCCGTATTTGTG (site TAACTGCCTCA) | 0.00877
TAACTTACATGGACCGGTTTTCCCGGTAATCCGTATTTGGC (site TAACTTACTGC) | 1.32
TAAGAATCATGGACCGGTTTTCCCGGTAATCCGTATTTGCG (site TAAGAATCTCG) | 2.9
TAAGAATCATGGACCGGTTTTCCCGGTAATCCGTATTTGCG (site TACGAATCTCG) | 1.95
TAAGAATCATGGACCGGTTTTCCCGGTAATCCGTATTTGCG (site TAGGAATCTCG) | 2.51
TAAGAATCATGGACCGGTTTTCCCGGTAATCCGTATTTGCG (site TATGAATCTCG) | 1.97
TAAGACTCATGGACCGGTTTTCCCGGTAATCCGTATTTGTC (site TAAGACTCTGA) | 2.64
TAAGCCGCATGGACCGGTTTTCCCGGTAATCCGTATTTGCA (site GGGTTGCCTGA) | 0
TAAGCTGCATGGACCGGTTTTCCCGGTAATCCGTATTTGAG (site TAAGCTGCTCT) | 1.32
TAAGCTGCATGGACCGGTTTTCCCGGTAATCCGTATTTGCC (site TAAGCTGCTGG) | 1.94
TAAGGTACATGGACCGGTTTTCCCGGTAATCCGTATTTGTA (site TAAGGTACTTA) | 2.09
TAAGTTGCATGGACCGGTTTTCCCGGTAATCCGTATTTGTG (site TAAGTTGCTCA) | 1.4
TAATAGTCATGGACCGGTTTTCCCGGTAATCCGTATTTGCG (site TAATAGTCTCG) | 3.15
TAATCACCATGGACCGGTTTTCCCGGTAATCCGTATTTGAG (site TAATCACCTCT) | 0.0222
TAATGACCATGGACCGGTTTTCCCGGTAATCCGTATTTGCC (site TAATGACCTGG) | 0
TAATGACCATGGACCGGTTTTCCCGGTAATCCGTATTTGGG (site TAATGAACTCC) | 0.00176
TAATGACCATGGACCGGTTTTCCCGGTAATCCGTATTTGGG (site TAATGACCTCC) | 0.00316

Sequence | recombinant UMI read abundance (log10)
TAATGACCATGGACCGGTTTTCCCGGTAATCCGTATTTGGG (site TAATGAGCTCC) | 0.0136
TAATGACCATGGACCGGTTTTCCCGGTAATCCGTATTTGGG (site TAATGATCTCC) | 0.00372
TAATGAGCATGGACCGGTTTTCCCGGTAATCCGTATTTGTG (site TAATGAGCTCA) | 1.16
TAATGAGCATGGACCGGTTTTCCCGGTAATCCGTATTTGTG (site TAATGAGCTCC) | 0.00287
TAATGAGCATGGACCGGTTTTCCCGGTAATCCGTATTTGTG (site TAATGAGCTCG) | 1.54
TAATGAGCATGGACCGGTTTTCCCGGTAATCCGTATTTGTG (site TAATGAGCTCT) | 0.133
TAATGTGCATGGACCGGTTTTCCCGGTAATCCGTATTTGGG (site TAATGAGCTCC) | 0.0156
TAATGTGCATGGACCGGTTTTCCCGGTAATCCGTATTTGGG (site TAATGCGCTCC) | 0.00475
TAATGTGCATGGACCGGTTTTCCCGGTAATCCGTATTTGGG (site TAATGGGCTCC) | 0.00856
TAATGTGCATGGACCGGTTTTCCCGGTAATCCGTATTTGGG (site TAATGTGCTCC) | 0.0867
TAATTGACATGGACCGGTTTTCCCGGTAATCCGTATTTGCT (site TAATTGACTAG) | 2.35
TAATTGACATGGACCGGTTTTCCCGGTAATCCGTATTTGCT (site TACTTGACTAG) | 1.17
TAATTGACATGGACCGGTTTTCCCGGTAATCCGTATTTGCT (site TAGTTGACTAG) | 1.39
TAATTGACATGGACCGGTTTTCCCGGTAATCCGTATTTGCT (site TATTTGACTAG) | 0.698
TACAACACATGGACCGGTTTTCCCGGTAATCCGTATTTGTG (site TACAACACTCA) | 0.148
TACAATACATGGACCGGTTTTCCCGGTAATCCGTATTTGCA (site TAAAATACTTG) | 0
TACAATACATGGACCGGTTTTCCCGGTAATCCGTATTTGCA (site TACAATACTTG) | 1.18
TACAATACATGGACCGGTTTTCCCGGTAATCCGTATTTGCA (site TAGAATACTTG) | 0
TACAATACATGGACCGGTTTTCCCGGTAATCCGTATTTGCA (site TATAATACTTG) | 0
TACAATCCATGGACCGGTTTTCCCGGTAATCCGTATTTGAG (site TACAATCCTCT) | 0.531
TACAGACCATGGACCGGTTTTCCCGGTAATCCGTATTTGTC (site TACAGACCTGA) | 0
TACAGCGCATGGACCGGTTTTCCCGGTAATCCGTATTTGCG (site TACAGCGCTCG) | 0.00572
TACAGGCCATGGACCGGTTTTCCCGGTAATCCGTATTTGCT (site TACAGGCCTAG) | 0.00356
TACCACCCATGGACCGGTTTTCCCGGTAATCCGTATTTGCT (site TACCACCCTAG) | 0.83
TACCCGCCATGGACCGGTTTTCCCGGTAATCCGTATTTGCG (site TACCCGCCTCG) | 0.26

Sequence | recombinant UMI read abundance (log10)
TACCCTTCATGGACCGGTTTTCCCGGTAATCCGTATTTGGT (site TAACCTTCTAC) | 0.00354
TACCCTTCATGGACCGGTTTTCCCGGTAATCCGTATTTGGT (site TACCCTTCTAC) | 0.56
TACCCTTCATGGACCGGTTTTCCCGGTAATCCGTATTTGGT (site TAGCCTTCTAC) | 0.0115
TACCCTTCATGGACCGGTTTTCCCGGTAATCCGTATTTGGT (site TATCCTTCTAC) | 0.00909
TACCTCTCATGGACCGGTTTTCCCGGTAATCCGTATTTGAC (site TACCTCTCTGT) | 0.216
TACCTGACATGGACCGGTTTTCCCGGTAATCCGTATTTGCT (site TACATGACTAG) | 0
TACCTGACATGGACCGGTTTTCCCGGTAATCCGTATTTGCT (site TACCTGACTAG) | 0.461
TACCTGACATGGACCGGTTTTCCCGGTAATCCGTATTTGCT (site TACGTGACTAG) | 0
TACCTGACATGGACCGGTTTTCCCGGTAATCCGTATTTGCT (site TACTTGACTAG) | 0
TACCTTCCATGGACCGGTTTTCCCGGTAATCCGTATTTGGC (site TACCTTCCTGC) | 0
TACGATCCATGGACCGGTTTTCCCGGTAATCCGTATTTGCT (site TACGATCCTAG) | 1.96
TACGGAGCATGGACCGGTTTTCCCGGTAATCCGTATTTGCC (site AGTCTTACTAA) | 0
TACGGCCCATGGACCGGTTTTCCCGGTAATCCGTATTTGTT (site AACGGCCCTAA) | 0.0182
TACGGCCCATGGACCGGTTTTCCCGGTAATCCGTATTTGTT (site CACGGCCCTAA) | 0.00844
TACGGCCCATGGACCGGTTTTCCCGGTAATCCGTATTTGTT (site GACGGCCCTAA) | 0.00736
TACGGCCCATGGACCGGTTTTCCCGGTAATCCGTATTTGTT (site TACGGCCCTAA) | 0.00191
TACGGCGCATGGACCGGTTTTCCCGGTAATCCGTATTTGCC (site TACGGCGCTGG) | 2.01
TACGTGACATGGACCGGTTTTCCCGGTAATCCGTATTTGAC (site TACGTGACTGT) | 1.74
TACTCCTCATGGACCGGTTTTCCCGGTAATCCGTATTTGGG (site TACTCCTCTCC) | 0.0269
TACTCTCCATGGACCGGTTTTCCCGGTAATCCGTATTTGTG (site TACTCTCCTCA) | 0.011
TACTGCACATGGACCGGTTTTCCCGGTAATCCGTATTTGGG (site TACTGCACTCC) | 0.0129
TACTTAACATGGACCGGTTTTCCCGGTAATCCGTATTTGCT (site TACTTAACTAG) | 0.345
TACTTAACATGGACCGGTTTTCCCGGTAATCCGTATTTGCT (site TACTTCACTAG) | 0.00655
TACTTAACATGGACCGGTTTTCCCGGTAATCCGTATTTGCT (site TACTTGACTAG) | 0.00699
TACTTAACATGGACCGGTTTTCCCGGTAATCCGTATTTGCT (site TACTTTACTAG) | 0
